Consider 33 compounds from US7045532B2 (Millennium Pharmaceuticals, Inc., priority 1999, dated 2006).

The target of one experiment is T1, ACE-2 (Homo sapiens, UniProt Q9BYF1).
T1 construct: a stop codon inserted after the serine immediately preceding the transmembrane domain; made in house; host or cells: CHO K1 cells (transient transfection, purified from conditioned medium)
T1 sequence (Q9BYF1 18-740 limits assumed): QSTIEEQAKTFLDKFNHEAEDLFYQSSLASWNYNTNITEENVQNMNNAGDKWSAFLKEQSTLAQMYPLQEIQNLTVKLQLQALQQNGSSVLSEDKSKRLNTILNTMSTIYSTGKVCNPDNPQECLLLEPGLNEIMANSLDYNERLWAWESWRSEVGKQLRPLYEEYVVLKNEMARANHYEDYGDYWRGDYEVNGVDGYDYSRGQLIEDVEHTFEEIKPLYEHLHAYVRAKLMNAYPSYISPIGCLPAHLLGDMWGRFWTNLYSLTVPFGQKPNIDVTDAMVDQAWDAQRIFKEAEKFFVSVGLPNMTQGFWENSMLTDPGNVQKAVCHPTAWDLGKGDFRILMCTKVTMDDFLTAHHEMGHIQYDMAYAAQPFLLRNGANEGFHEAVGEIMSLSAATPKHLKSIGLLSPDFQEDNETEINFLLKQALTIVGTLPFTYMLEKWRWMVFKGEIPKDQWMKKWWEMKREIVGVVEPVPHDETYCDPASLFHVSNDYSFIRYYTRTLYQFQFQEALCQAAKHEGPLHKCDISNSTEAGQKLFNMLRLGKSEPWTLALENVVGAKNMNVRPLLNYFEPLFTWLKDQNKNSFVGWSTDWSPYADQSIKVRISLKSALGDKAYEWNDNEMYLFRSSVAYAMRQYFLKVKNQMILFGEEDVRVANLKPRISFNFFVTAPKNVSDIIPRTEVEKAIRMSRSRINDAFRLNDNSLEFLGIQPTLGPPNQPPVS
Kind of experiment: ACE-2 Competitive Substrate Assay (ACS Assay). The format is biochemical. To be noted: Ki class; compounds tested in 5% DMSO, 12 compound concentrations, Ki=Kiapp/(1+[S]/Km); read-out: Human ACE-2 Activity.
With `CC(C)CC(N[C@@H](Cc1cncn1Cc1ccc(Cl)c(Cl)c1)C(=O)O)C(=O)O` (single isomer, unassigned) [GX], the Ki is above 500 nM.

Take `Cc1nc(C[C@H](NC(CC(C)C)C(=O)O)C(=O)O)cs1` (single isomer, unassigned) [GY, 2-[1-Carboxy-2-(2-methyl-thiazol-4-yl)-ethylamino]-4-methyl-pentanoic acid]: the Ki was above 500 nM.

For `CC(C)CC(N[C@@H](Cc1cncn1Cc1ccc(C#N)cc1)C(=O)O)C(=O)O` (single isomer, unassigned) [HB, 2-[1-Carboxy-2-[3-(4-cyano-benzyl)-3H-imidazol-4-yl]-ethylamino)4-methyl-pentanoic acid], the Ki is above 500 nM.

In the case of `CC(C)CC(N[C@@H](Cc1cncn1Cc1cccc(Cl)c1)C(=O)O)C(=O)O` (single isomer, unassigned) [HD, 2-{1-Carboxy-2-[3-(3-chloro-benzyl)-3H-imidazol-4-yl]-ethylamino)4-methyl-pentanoic acid], the Ki is above 500 nM.

`CC(C)CC(N[C@@H](Cc1cncn1Cc1cc(Cl)cc(Cl)c1)C(=O)O)C(=O)O` (single isomer, unassigned) [HF, 2-[1-Carboxy-2-[3-(3,5-dichloro-benzyl)-3H-imidazol-4-yl]-ethylamino)4-methyl-pentanoic acid]: the Ki lay within 100 to 500 nM.

Turning to `Cc1ccc(Cn2cncc2C[C@H](NC(CC(C)C)C(=O)O)C(=O)O)cc1` (single isomer, unassigned) [HH, 2-[1-Carboxy-2-[3-(4-methyl-benzyl)-3H-imidazol-4-yl]-ethylamino)4-methyl-pentanoic acid], the Ki was in the range of 100 to 500 nM.

`CCCCc1ccc(Cn2cncc2C[C@H](NC(CC(C)C)C(=O)O)C(=O)O)cc1` (single isomer, unassigned) [HI, 2-[2-[3-(4-Butyl-benzyl)-3H-imidazol-4-yl]-1-carboxy-ethylamino]-4-methyl-pentanoic acid]: the Ki fell in the range of 100 to 500 nM.

`CCCCc1ccc(Cn2cncc2C[C@H](NC(CC(C)C)C(=O)O)C(=O)O)cc1` (single isomer, unassigned) [HJ, 2-[2-[3-(4-Butyl-benzyl)-3H-imidazol-4-yl]-1-carboxy-ethylamino]-4-methyl-pentanoic acid]: the Ki is above 500 nM.

Regarding `Cc1ccc(Cn2cncc2C[C@H](NC(CC(C)C)C(=O)O)C(=O)O)cc1C` (single isomer, unassigned) [HL, 2-[1-Carboxy-2-[3-(3,4-dimethyl-benzyl)-3H-imidazol-4-yl]-ethylamino]4-methyl-pentanoic acid], the Ki was above 500 nM.

Consider `CC(C)CC(N[C@@H](Cc1csc(NCc2ccccc2)n1)C(=O)O)C(=O)O` (single isomer, unassigned) [HM, 2-[2-(2-Benzylamino-thiazol-4-yl)-1-carboxy-ethylamino]-4-methyl-pentanoic acid], for which the Ki was above 500 nM.

Regarding `Cc1cccc(Cn2cncc2C[C@H](NC(CC(C)C)C(=O)O)C(=O)O)c1` (single isomer, unassigned) [HP, 2-[1-Carboxy-2-[3-(3-methyl-benzyl)-3H-imidazol-4-yl]-ethylamino]4-methyl-pentanoic acid], the Ki was above 500 nM.

In the case of `Cc1cc(C)cc(Cn2cncc2C[C@H](NC(CC(C)C)C(=O)O)C(=O)O)c1` (single isomer, unassigned) [HR, 2-[1-Carboxy-2-[3-(3,5-dimethyl-benzyl)-3H-imidazol-4-yl]-ethylamino)4-methyl-pentanoic acid], the Ki was above 500 nM.

`CC(C)CC(N[C@@H](Cc1cncn1Cc1ccc(OC(F)(F)F)cc1)C(=O)O)C(=O)O` (single isomer, unassigned) [HT, 2-[1-Carboxy-2-[3-(4-trifluoromethoxy-benzyl)-3H-imidazol-4-yl]-ethylamino]-4-methyl-pentanoic acid]: the Ki is above 500 nM.

For the compound `CC(C)CC(N[C@@H](Cc1cncn1Cc1ccc(C(C)C)cc1)C(=O)O)C(=O)O` (single isomer, unassigned) [HV, 2-[1-Carboxy-2-[3-(4-isopropyl-benzyl)-3H-imidazol-4-yl]-ethylamino)4-methyl-pentanoic acid], the Ki was above 500 nM.

In the case of `Cc1ccccc1Cn1cncc1C[C@H](NC(CC(C)C)C(=O)O)C(=O)O` (single isomer, unassigned) [HW, 2-[1-Carboxy-2-[3-(2-methyl-benzyl)-3H-imidazol-4-yl]-ethylamino]4-methyl-pentanoic acid], the Ki was in the range of 100 to 500 nM.

Take `Cc1ccccc1Cn1cncc1C[C@H](NC(CC(C)C)C(=O)O)C(=O)O` (single isomer, unassigned) [HX, 2-[1-Carboxy-2-[3-(2-methyl-benzyl)-3H-imidazol-4-yl]-ethylamino]4-methyl-pentanoic acid]: the Ki is above 500 nM.

Regarding `CC(C)CC(N[C@@H](Cc1cncn1Cc1ccc(C(C)(C)C)cc1)C(=O)O)C(=O)O` (single isomer, unassigned) [HZ, 2-[2-[3-(4-tert-Butyl-benzyl)-3H-imidazol-4-yl]-1-carboxy-ethylamino]-4-methyl-pentanoic acid], the Ki was above 500 nM.

Turning to `CC(C)CC(N[C@@H](Cc1cncn1Cc1ccccc1CS(=O)(=O)c1ccccc1)C(=O)O)C(=O)O` (single isomer, unassigned) [IA, 2-[2-[3-(2-Benzenesulfonylmethyl-benzyl)-3H-imidazol-4-yl]-1-carboxy-ethylamino]-4-methyl-pentanoic acid], the Ki was above 500 nM.

With `CC(C)CC(N[C@@H](Cc1cncn1Cc1ccc([N+](=O)[O-])cc1)C(=O)O)C(=O)O` (single isomer, unassigned) [IC, 2-[1-Carboxy-2-[3-(4-nitro-benzyl)-3H-imidazol-4-yl]-ethylamino]-4-methyl-pentanoic acid], the Ki was below 100 nM.

Consider `CC(C)CC(N[C@@H](Cc1cncn1Cc1ccc([N+](=O)[O-])cc1)C(=O)O)C(=O)O` (single isomer, unassigned) [ID, 2-[1-Carboxy-2-[3-(4-nitro-benzyl)-3H-imidazol-4-yl]-ethylamino]-4-methyl-pentanoic acid], for which the Ki is above 500 nM.

In the case of `CC(C)CC(N[C@@H](Cc1cncn1Cc1ccccc1-c1ccccc1)C(=O)O)C(=O)O` (single isomer, unassigned) [IE], the Ki was above 500 nM.

With `CC(C)CC(N[C@@H](Cc1cncn1Cc1cc(C(F)(F)F)cc(C(F)(F)F)c1)C(=O)O)C(=O)O` (single isomer, unassigned) [IG, 2-[2-[3-(3,5-Bis-trifluoromethyl-benzyl)-3H-imidazol-4-yl]-1-carboxy-ethylamino]-4-methyl-pentanoic acid], the Ki is above 500 nM.

Consider `CC(C)CC(N[C@@H](Cc1cncn1Cc1ccc(F)cc1)C(=O)O)C(=O)O` (single isomer, unassigned) [IJ, 2-[1-Carboxy-2-[3-(4-fluoro-benzyl)-3H-imidazol-4-yl]-ethylamino]4-methyl-pentanoic acid], for which the Ki was above 500 nM.

With `COc1cccc(Cn2cncc2C[C@H](NC(CC(C)C)C(=O)O)C(=O)O)c1OC` (single isomer, unassigned) [IO, 2-[1-Carboxy-2-[3-(2,3-dimethoxy-benzyl)-3H-imidazol-4-yl]-ethylamino)4-methyl-pentanoic acid], the Ki is below 100 nM.

With `COc1cccc(Cn2cncc2C[C@H](NC(CC(C)C)C(=O)O)C(=O)O)c1OC` (single isomer, unassigned) [IP, 2-[1-Carboxy-2-[3-(2,3-dimethoxy-benzyl)-3H-imidazol-4-yl]-ethylamino)4-methyl-pentanoic acid], the Ki was above 500 nM.

Regarding `Cc1c(Cn2cncc2C[C@H](NC(CC(C)C)C(=O)O)C(=O)O)cccc1-c1ccccc1` (single isomer, unassigned) [IQ, 2-[1-Carboxy-2-[3-(2-methyl-biphenyl-3-ylmethyl)-3H-imidazol-4-yl]-ethylamino]-4-methyl-pentanoic acid], the Ki fell in the range of 100 to 500 nM.

Regarding `Cc1c(Cn2cncc2C[C@H](NC(CC(C)C)C(=O)O)C(=O)O)cccc1-c1ccccc1` (single isomer, unassigned) [IR, 2-[1-Carboxy-2-[3-(2-methyl-biphenyl-3-ylmethyl)-3H-imidazol-4-yl]-ethylamino)-4-methyl-pentanoic acid], the Ki was above 500 nM.

In the case of `COc1ccc2ccccc2c1Cn1cncc1C[C@H](NC(CC(C)C)C(=O)O)C(=O)O` (single isomer, unassigned) [IS, 2-[1-Carboxy-2-[3-(2-methoxy-naphthalen-1-ylmethyl)-3H-imidazol-4-yl]-ethylamino]-4-methyl-pentanoic acid], the Ki is above 500 nM.

For the compound `CC(C)CC(N[C@@H](Cc1cncn1Cc1cccc(F)c1F)C(=O)O)C(=O)O` (single isomer, unassigned) [IU, 2-[1-Carboxy-2-[3-(2,3-difluoro-benzyl)-3H-imidazol-4-yl]-ethylamino]4-methyl-pentanoic acid], the Ki was below 100 nM.

As for `CC(C)CC(N[C@@H](Cc1cncn1Cc1cccc(F)c1F)C(=O)O)C(=O)O` (single isomer, unassigned) [IV, 2-[1-Carboxy-2-[3-(2,3-difluoro-benzyl)-3H-imidazol-4-yl]-ethylamino]4-methyl-pentanoic acid], the Ki is above 500 nM.

Consider `CC(C)CC(N[C@@H](Cc1cncn1Cc1cccc(Cl)c1Cl)C(=O)O)C(=O)O` (single isomer, unassigned) [IY, 2-[1-Carboxy-2-[3-(2.3-dichloro-benzyl)-3H-imidazol-4-yl]-ethylamino]4-methyl-pentanoic acid], for which the Ki was below 100 nM.

The same experiment, now with this note: Ki class; compounds tested in 5% DMSO, 12 concentrations; read-out: Human ACE-2 Activity.
Turning to `CC(C)CC(N[C@@H](Cc1nc2ccccc2n1Cc1ccccc1)C(=O)O)C(=O)O` (single isomer, unassigned) [GR, 2-[2-(1-Benzyl-1H-benzoimidazol-2-yl)-1-carboxy-ethylamino]-4-methyl-pentanoic acid], the Ki is above 500 nM.

For `CC(C)CC(N[C@@H](Cc1csc(N)n1)C(=O)O)C(=O)O` (single isomer, unassigned) [GU, 2-[2-(2-Amino-thiazol-4-yl)1-carboxy-ethylamino]-4-methyl-pentanoic acid], the Ki was above 500 nM.

The same experiment, now with this note: Table 3, very good ACE-2 inhibiting compounds; species not given; read-out: ACE-2 Activity, Ki.
Regarding `CC(C)CC(N[C@@H](Cc1cncn1Cc1ccc([N+](=O)[O-])cc1)C(=O)O)C(=O)O` (single isomer, unassigned) [IC, 2-[1-Carboxy-2-[3-(4-nitro-benzyl)-3H-imidazol-4-yl]-ethylamino]-4-methyl-pentanoic acid], the Ki was in the range of 50 to 100 nM.

As to `COc1cccc(Cn2cncc2C[C@H](NC(CC(C)C)C(=O)O)C(=O)O)c1OC` (single isomer, unassigned) [IO, 2-[1-Carboxy-2-[3-(2,3-dimethoxy-benzyl)-3H-imidazol-4-yl]-ethylamino)4-methyl-pentanoic acid], the Ki was 50 to 100 nM.

With `CC(C)CC(N[C@@H](Cc1cncn1Cc1cccc(F)c1F)C(=O)O)C(=O)O` (single isomer, unassigned) [IU, 2-[1-Carboxy-2-[3-(2,3-difluoro-benzyl)-3H-imidazol-4-yl]-ethylamino]4-methyl-pentanoic acid], the Ki fell in the range of 50 to 100 nM.
